One assay addresses HER2 kinase (Homo sapiens (Human), UniProt P04626). As to the kind of experiment: Inhibition of HER2 kinase activity (ULight-labeled PolyGT substrate). The format is biochemical. Conditions: HER2 kinase 10 nM, ATP 10 μM, 2 hours. A digest of the protocol:
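HER2 kinase at 10 nM with 10 μM ATP and 100 nM ULight-PolyGT, 5 min enzyme–compound preincubation, then 2 h reaction at room temperature in the dark. Compounds at 11 3-fold concentrations, 2.5 μM top to 0.042 nM, 1% DMSO, duplicates. TR-FRET 665/615 ratio; IC50 from inhibition versus DMSO and no-compound controls.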

The test system of the next assay is HCC827 cells. In words: Inhibition of cell proliferation, HCC827 (CCK-8, 72 h). The format is cell-based. Conditions: Homo sapiens, 72 h incubation. As to the method:
The assay for the inhibition of cell proliferation by small molecular compounds was carried out using the method as follows:
1. 600 μL pancreatin was added to a T75 cell culture flask, which was digested in a 37° C. incubator for about 1 min before 5 mL of DMEM complete culture solution was added, blew evenly, transferred to a 15 mL centrifuge tube, and centrifuged at 1000 rpm for 4 min;
2. The supernatant was removed and 5 mL DMEM complete culture solution was added, blew evenly, and 10 μL cell suspension was taken and mixed with 10 μL 0.4% Trypan Blue, and counted using a cell counter;
3. BT474 and HCC827 cell lines were seeded in 96-well plates at a cell density of 10,000 and 3000 cells/well/80 μL, respectively, and cultured overnight. Only sterile water was added to the 36 wells on the periphery of the 96-well plate without adding cells, and only the 60 wells in the center of the 96-well plate were used for cell assays and controls;
4. Dilution of compounds: the compounds were diluted with a 3-fold dilution to make 10 concentrations in total with an initial concentration of 10 mM;
5. 20 μL of different compounds with different concentrations were added to each well, and 20 μL of complete culture solution was added to the remaining wells. The final concentration of DMSO in each well is 0.25%;
6. After 72 h of incubation, 10 μL CCK-8 reagent was added to each well, and incubated at 37° C. for 1-2 h; and the OD value was read at 450 nm;
7. Cell survival rate (%)=[(As−Ab)/(Ac−Ab)]*100%
As: Assay well (medium containing cell, CCK-8, compound)
Ac: Control well (medium containing cell, CCK-8)
Ab: Blank well (CCK-8, medium without cell and compound)
8. The value was imported into Graphpad Prism5 software for the calculation of IC50s (compound concentration at which 50% maximum survival rate is observed).

A further assay concerns BT474 cells. As to the kind of experiment: Inhibition of cell proliferation, BT474 (CCK-8, 72 h). The assay is classed as cell-based. Conditions: Homo sapiens, BT-474, 72 h incubation. In outline: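 BT474 and HCC827 seeded at 10,000 and 3000 cells/well respectively, cultured overnight, then exposed to 10-point 3-fold compound dilutions (top stock 10 mM; 0.25% DMSO final) for 72 h. Viability by CCK-8, OD450; survival normalised to untreated and cell-free blanks, IC50 from curve fit.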

HER2 kinase, sequence (P04626 23-1255): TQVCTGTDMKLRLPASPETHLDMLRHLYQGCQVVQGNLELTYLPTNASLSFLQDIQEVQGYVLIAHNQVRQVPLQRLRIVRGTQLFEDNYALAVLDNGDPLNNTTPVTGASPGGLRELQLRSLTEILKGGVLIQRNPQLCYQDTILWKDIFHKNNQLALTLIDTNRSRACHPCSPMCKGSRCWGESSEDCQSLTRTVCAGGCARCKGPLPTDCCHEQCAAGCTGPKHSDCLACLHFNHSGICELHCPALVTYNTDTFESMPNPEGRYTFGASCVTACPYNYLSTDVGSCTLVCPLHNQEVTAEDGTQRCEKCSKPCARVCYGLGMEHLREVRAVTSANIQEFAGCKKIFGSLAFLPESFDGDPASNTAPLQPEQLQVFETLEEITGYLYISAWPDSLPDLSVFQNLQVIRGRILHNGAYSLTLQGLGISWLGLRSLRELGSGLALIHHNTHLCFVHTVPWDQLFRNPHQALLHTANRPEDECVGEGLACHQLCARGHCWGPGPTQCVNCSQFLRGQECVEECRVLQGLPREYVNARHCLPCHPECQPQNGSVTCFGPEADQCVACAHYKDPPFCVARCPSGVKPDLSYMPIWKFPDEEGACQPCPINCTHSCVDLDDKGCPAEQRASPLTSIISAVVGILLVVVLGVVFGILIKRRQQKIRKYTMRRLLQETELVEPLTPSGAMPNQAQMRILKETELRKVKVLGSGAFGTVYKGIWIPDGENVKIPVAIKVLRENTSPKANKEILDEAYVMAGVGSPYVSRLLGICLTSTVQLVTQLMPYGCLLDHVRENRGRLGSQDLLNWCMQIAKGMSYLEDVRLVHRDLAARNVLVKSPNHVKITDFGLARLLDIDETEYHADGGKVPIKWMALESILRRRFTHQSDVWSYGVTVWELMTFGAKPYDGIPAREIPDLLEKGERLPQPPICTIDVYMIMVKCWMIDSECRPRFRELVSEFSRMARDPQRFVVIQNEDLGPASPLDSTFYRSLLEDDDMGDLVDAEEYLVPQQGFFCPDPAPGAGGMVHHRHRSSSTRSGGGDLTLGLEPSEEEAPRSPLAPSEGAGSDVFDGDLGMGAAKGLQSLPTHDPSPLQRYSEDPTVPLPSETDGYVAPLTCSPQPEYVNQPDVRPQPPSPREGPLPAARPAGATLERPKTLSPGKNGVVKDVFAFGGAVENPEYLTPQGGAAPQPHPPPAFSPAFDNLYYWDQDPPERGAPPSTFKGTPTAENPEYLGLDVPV

For orientation: IC50 means the concentration that inhibits the measured activity by half. Higher therefore signals weaker potency in that assay. Regarding `CN(C)C/C=C/C(=O)N1CCOc2c1ccc1ncnc(Nc3ccc(OCc4ccccc4F)cc3)c21` [Example 79, (E)-4-(dimethylamino)-1-(10-((4-((2-fluorobenzyl)oxy)phenyl)amino)-2,3-dihydro-4H-[1,4]oxazino[2,3-f]quinazolin-4-yl)but-2-en-1-one], the IC50 against HER2 kinase was ≤ 50 nM; in the assay with HCC827 cells, 500 to 5000 nM; in the assay on BT474 cells, ≤ 50 nM.

In the case of `CN(C)C/C=C/C(=O)N1CCOc2c1ccc1ncnc(Nc3ccc(OCc4ccccc4Cl)cc3)c21` [Example 80, (E)-4-(dimethylamino)-1-(10-((4-((2-chlorobenzyl)oxy)phenyl)amino)-2,3-dihydro-4H-[1,4]oxazino[2,3-f]quinazolin-4-yl)but-2-en-1-one], the IC50 was ≤ 50 nM at HER2 kinase, 500 to 5000 nM in the assay with HCC827 cells and ≤ 50 nM in the assay with BT474 cells.

With `Cc1ccccc1COc1ccc(Nc2ncnc3ccc4c(c23)OCCN4C(=O)/C=C/CN(C)C)cc1` [Example 81, (E)-4-(dimethylamino)-1-(10-((4-((2-methylbenzyl)oxy)phenyl)amino)-2,3-dihydro-4H-[1,4]oxazino[2,3-f]quinazolin-4-yl)but-2-en-1-one], the figures for the half-maximal inhibitory concentration (IC50) on HER2 kinase, with HCC827 cells and with BT474 cells were ≤ 50 nM, 500 to 5000 nM and ≤ 50 nM, respectively.

Regarding `COc1ccccc1COc1ccc(Nc2ncnc3ccc4c(c23)OCCN4C(=O)/C=C/CN(C)C)cc1` [Example 82, (E)-4-(dimethylamino)-1-(10-((4-((2-methoxybenzyl)oxy)phenyl)amino)-2,3-dihydro-4H-[1,4]oxazino[2,3-f]quinazolin-4-yl)but-2-en-1-one], the IC50 against HER2 kinase was ≤ 50 nM; in the assay with HCC827 cells, 500 to 5000 nM; in the assay with BT474 cells it was ≤ 50 nM.

For `Cc1cccc(COc2ccc(Nc3ncnc4ccc5c(c34)OCCN5C(=O)/C=C/CN(C)C)cc2)c1` [Example 84, (E)-4-(dimethylamino)-1-(10-((4-((3-methylbenzyl)oxy)phenyl)amino)-2,3-dihydro-4H-[1,4]oxazino[2,3-f]quinazolin-4-yl)but-2-en-1-one], the values for the IC50 against HER2 kinase, in the assay on HCC827 cells and in the assay on BT474 cells were ≤ 50 nM, 50 to 500 nM and ≤ 50 nM, respectively.

On to `CN(C)C/C=C/C(=O)N1CCOc2c1ccc1ncnc(Nc3ccc(OCc4cccc(C#N)c4)cc3)c21` [Example 85, (E)-4-(dimethylamino)-1-(10-((4-((3-cyanobenzyl)oxy)phenyl)amino)-2,3-dihydro-4H-[1,4]oxazino[2,3-f]quinazolin-4-yl)but-2-en-1-one], for which the IC50 on HER2 kinase was ≤ 50 nM; with HCC827 cells it was 500 to 5000 nM; with BT474 cells, ≤ 50 nM.

For the molecule `COc1cccc(COc2ccc(Nc3ncnc4ccc5c(c34)OCCN5C(=O)/C=C/CN(C)C)cc2)c1` [Example 86, (E)-4-(dimethylamino)-1-(10-((4-((3-methoxybenzyl)oxy)phenyl)amino)-2,3-dihydro-4H-[1,4]oxazino[2,3-f]quinazolin-4-yl)but-2-en-1-one], the IC50 is ≤ 50 nM against HER2 kinase, 500 to 5000 nM in the assay on HCC827 cells and ≤ 50 nM in the assay on BT474 cells.

As for `CN(C)C/C=C/C(=O)N1CCOc2c1ccc1ncnc(Nc3ccc(OCc4ccc(Cl)cc4)cc3)c21` [Example 87, (E)-4-(dimethylamino)-1-(10-((4-((4-chlorobenzyl)oxy)phenyl)amino)-2,3-dihydro-4H-[1,4]oxazino[2,3-f]quinazolin-4-yl)but-2-en-1-one], the IC50 was ≤ 50 nM on HER2 kinase, 500 to 5000 nM in the assay on HCC827 cells and 50 to 500 nM in the assay with BT474 cells.

As to `Cc1ccc(COc2ccc(Nc3ncnc4ccc5c(c34)OCCN5C(=O)/C=C/CN(C)C)cc2)cc1` [Example 88, (E)-4-(dimethylamino)-1-(10-((4-((4-methylbenzyl)oxy)phenyl)amino)-2,3-dihydro-4H-[1,4]oxazino[2,3-f]quinazolin-4-yl)but-2-en-1-one], the half-maximal inhibitory concentration (IC50) is ≤ 50 nM against HER2 kinase, 500 to 5000 nM in the assay on HCC827 cells and ≤ 50 nM in the assay with BT474 cells.

For `CN(C)C/C=C/C(=O)N1CCOc2c1ccc1ncnc(Nc3ccc(OCc4cc(F)ccc4F)cc3)c21` [Example 89, (E)-1-(10-((4-((2,5-difluorobenzyl)oxy)phenyl)amino)-2,3-dihydro-4H-[1,4]oxazino[2,3-f]quinazolin-4-yl)-4-(dimethylamino)but-2-en-1-one], the IC50 on HER2 kinase is ≤ 50 nM; in the assay on HCC827 cells, 500 to 5000 nM; in the assay on BT474 cells, ≤ 50 nM.

For the molecule `CN(C)C/C=C/C(=O)N1CCOc2c1ccc1ncnc(Nc3ccc(OCc4cc(F)ccc4Cl)cc3)c21` [Example 90, (E)-1-(10-((4-((2-chloro-5-fluorobenzyl)oxy)phenyl)amino)-2,3-dihydro-4H-[1,4]oxazino[2,3-f]quinazolin-4-yl)-4-(dimethylamino)but-2-en-1-one], the IC50 was ≤ 50 nM against HER2 kinase, 500 to 5000 nM in the assay with HCC827 cells and ≤ 50 nM in the assay on BT474 cells.

For `CN(C/C=C/C(=O)N1CCOc2c1ccc1ncnc(Nc3ccc(OCc4ccccn4)c(Cl)c3)c21)C1CC1` [Example 100, (E)-1-(10-((3-chloro-4-(pyridin-2-ylmethoxy)phenyl)amino)-2,3-dihydro-4H-[1,4]oxazino[2,3-f]quinazolin-4-yl)-4-(cyclopropyl(methyl)amino)but-2-en-1-one], the half-maximal inhibitory concentration (IC50) at HER2 kinase was ≤ 50 nM; in the assay with HCC827 cells it was 50 to 500 nM; in the assay on BT474 cells, ≤ 50 nM.

With `CC(C)NC/C=C/C(=O)N1CCOc2c1ccc1ncnc(Nc3ccc(OCc4ccccn4)c(Cl)c3)c21` [Example 102, (E)-1-(10-((3-chloro-4-(pyridin-2-ylmethoxy)phenyl)amino)-2,3-dihydro-4H-[1,4]oxazino[2,3-f]quinazolin-4-yl)-4-(isopropylamino)but-2-en-1-one], the results for the half-maximal inhibitory concentration (IC50) against HER2 kinase, in the assay on HCC827 cells and in the assay on BT474 cells were ≤ 50 nM, 50 to 500 nM and ≤ 50 nM, respectively.

Consider `O=C(/C=C/CN1CCOCC1)N1CCOc2c1ccc1ncnc(Nc3ccc(OCc4ccccn4)c(Cl)c3)c21` [Example 103, (E)-1-(10-((3-chloro-4-(pyridin-2-ylmethoxy)phenyl)amino)-2,3-dihydro-4H-[1,4]oxazino[2,3-f]quinazolin-4-yl)-4-morpholinobut-2-en-1-one], for which the IC50 was ≤ 50 nM against HER2 kinase, 50 to 500 nM with HCC827 cells and ≤ 50 nM in the assay on BT474 cells.

As to `O=C(/C=C/CNC1CCC1)N1CCOc2c1ccc1ncnc(Nc3ccc(OCc4ccccn4)c(Cl)c3)c21` [Example 109, (E)-1-(10-((3-chloro-4-(pyridin-2-ylmethoxy)phenyl)amino)-2,3-dihydro-4H-[1,4]oxazino[2,3-f]quinazolin-4-yl)-4-(cyclobutylamino)but-2-en-1-one], the IC50 against HER2 kinase is ≤ 50 nM; with HCC827 cells, 50 to 500 nM; in the assay with BT474 cells, ≤ 50 nM.

Regarding `CN1CCC[C@H]1/C=C/C(=O)N1CCOc2c1ccc1ncnc(Nc3ccc(OCc4ccccn4)c(Cl)c3)c21` [Example 112, (S,E)-1-(10-((3-chloro-4-(pyridin-2-ylmethoxy)phenyl)amino)-2,3-dihydro-4H-[1,4]oxazino[2,3-f]quinazolin-4-yl)-3-(1-methylpyrrolidin-2-yl)prop-2-en-1-one], the figures for the IC50 against HER2 kinase, with HCC827 cells and in the assay on BT474 cells were ≤ 50 nM, 50 to 500 nM and ≤ 50 nM, respectively.

Turning to `CC#CC(=O)N1CCOc2c1ccc1ncnc(Nc3ccc(OCc4ccccn4)c(Cl)c3)c21` [Example 113, 1-(10-((3-chloro-4-(pyridin-2-ylmethoxy)phenyl)amino)-2,3-dihydro-4H-[1,4]oxazino[2,3-f]quinazolin-4-yl)but-2-yne-1-one], the IC50 is ≤ 50 nM on HER2 kinase, 500 to 5000 nM with HCC827 cells and 50 to 500 nM in the assay with BT474 cells.

With `CC1(O)CCN(C/C=C/C(=O)N2CCOc3c2ccc2ncnc(Nc4ccc(OCc5ccccn5)c(Cl)c4)c32)CC1` [Example 116, (E)-1-(10-((3-chloro-4-(pyridin-2-ylmethoxy)phenyl)amino)-2,3-dihydro-4H-[1,4]oxazino[2,3-f]quinazolin-4-yl)-4-(4-hydroxyl-4-methylpiperidin-1-yl)but-2-en-1-one], the IC50 against HER2 kinase is ≤ 50 nM; in the assay on HCC827 cells, 50 to 500 nM; in the assay on BT474 cells, ≤ 50 nM.

On to `COCCN(C)C/C=C/C(=O)N1CCOc2c1ccc1ncnc(Nc3ccc(OCc4ccccn4)c(Cl)c3)c21` [Example 119, (E)-1-(10-((3-chloro-4-(pyridin-2-ylmethoxy)phenyl)amino)-2,3-dihydro-4H-[1,4]oxazino[2,3-f]quinazolin-4-yl)-4-((2-methoxyethyl)(methyl)amino)but-2-en-1-one], for which the 50% inhibitory concentration (IC50) is ≤ 50 nM against HER2 kinase, 50 to 500 nM with HCC827 cells and ≤ 50 nM with BT474 cells.
